We go through 36 compounds from patent US9580449B2, “Compositions and methods for the production of pyrimidine and pyridine compounds with BTK inhibitory activity” (Merck Patent GmbH, priority 2011, dated 2017).

Molecules are shown by their SMILES. A value given as a limit tells only on which side of the number the result lay.

This experiment deals with full-length human BTK (Homo sapiens (Human), UniProt Q06187). Briefly: BTK IC50 enzyme assay (microfluidic off-chip mobility shift kinase assay). The format is biochemical. Conditions: incubated for 90 min. at 27 C; read-out: Time Dependent BTK Enzyme Assay IC50. As to the method:
The following describes a microfluidic, off-chip mobility shift kinase assay used to measure inherent potency of compounds against BTK enzyme. Compounds described by embodiments of the present invention were assayed using this protocol and the data from the same is recorded in Table 2 within the column labeled: “Time Dependent BTK Enzyme Assay IC50”.
Stopped reactions were monitored at −2 PSI, −3000 V/−700 V in a LabChip 3000 plate reader from Caliper Life Sciences, a PerkinElmer Company (Hopkinton, Mass.), and the activity was measured by off-chip mobility shift assay measuring the charge/mass difference between substrate and product resulting from peptide phosphorylation. IC50 and efficacy were determined by plotting log [Inhibitor] vs. % Activity in GeneData Screener (Basel, Switzerland). […] I<1 uM and II>1 uM.

The term IC50 denotes the concentration at which inhibition is half-maximal.

Chain of full-length human BTK (Q06187 whole entry): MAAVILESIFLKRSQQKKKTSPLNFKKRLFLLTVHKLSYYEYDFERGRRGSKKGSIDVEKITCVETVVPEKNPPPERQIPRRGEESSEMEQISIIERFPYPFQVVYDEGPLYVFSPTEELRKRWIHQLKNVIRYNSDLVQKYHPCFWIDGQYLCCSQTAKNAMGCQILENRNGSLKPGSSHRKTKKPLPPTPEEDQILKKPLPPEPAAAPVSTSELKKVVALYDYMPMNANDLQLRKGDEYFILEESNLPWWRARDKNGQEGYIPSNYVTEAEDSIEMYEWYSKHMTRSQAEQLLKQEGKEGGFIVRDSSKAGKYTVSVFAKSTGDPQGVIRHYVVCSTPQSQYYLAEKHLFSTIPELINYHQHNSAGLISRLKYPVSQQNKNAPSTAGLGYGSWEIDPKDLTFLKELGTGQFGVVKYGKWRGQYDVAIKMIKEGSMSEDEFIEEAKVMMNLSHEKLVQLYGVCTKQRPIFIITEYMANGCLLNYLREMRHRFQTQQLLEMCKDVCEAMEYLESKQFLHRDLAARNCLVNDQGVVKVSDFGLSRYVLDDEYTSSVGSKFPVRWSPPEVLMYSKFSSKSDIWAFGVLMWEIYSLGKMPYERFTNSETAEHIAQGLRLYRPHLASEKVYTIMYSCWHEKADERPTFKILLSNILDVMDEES

In the case of `C=CC(=O)N1CCC(CNc2ncnc(N)c2-c2ccc(C(=O)Nc3ccccc3)cc2)CC1` [A157, 4-(4-(((1-acryloylpiperidin-4-yl)methyl)amino)-6-aminopyrimidin-5-yl)-N-phenylbenzamide], the IC50 was above 1000 nM. Under `Nc1ncnc(OC2CC3(C2)CN(C(=O)/C=C/CN2CC(F)C2)C3)c1-c1ccc(Oc2ccccc2)cc1` [A222, (E)-1-(6-((6-amino-5-(4-phenoxyphenyl)pyrimidin-4-yl)oxy)-2-azaspiro[3.3]heptan-2-yl)-4-(3-fluoroazetidin-1-yl)but-2-en-1-one] stands below 100 nM.

Turning to `C=CC(=O)Nc1cccc(Oc2ncnc(N)c2-c2ccc(OCc3ccc(F)cc3)cc2)c1` [A344, N-(3-{6-Amino-5-[4-(4-fluoro-benzyloxy)-phenyl]-pyrimidin-4-yloxy}-phenyl)-acrylamide], the IC50 was below 100 nM.

On to `C=CC(=O)Nc1cccc(-c2c(Oc3ccc(Oc4ccccc4)cc3)ccnc2C(N)=O)c1` [A272, 3-(3-acrylamidophenyl)-4-(4-phenoxyphenoxy)picolinamide], for which the IC50 was below 100 nM. On to `C=CC(=O)Nc1cncc(Oc2ncnc(N)c2-c2cnn(Cc3ccccc3)c2)c1` [A189, N-(5-((6-amino-5-(1-benzyl-1H-pyrazol-4-yl)pyrimidin-4-yl)oxy)pyridin-3-yl)acrylamide], for which the 50% inhibitory concentration (IC50) was below 100 nM. On to `C=CC(=O)N1CCC(CN(C)c2ncnc(N)c2-c2ccc(Oc3ccccc3)cc2)CC1` [A47, 1-(4-(((6-amino-5-(4-phenoxyphenyl)pyrimidin-4-yl)(methyl)amino)methyl)piperidin-1-yl)prop-2-en-1-one], for which the IC50 was below 1000 nM. Under `C=CC(=O)NCCOc1ncnc(N)c1-c1ccc(Oc2ccccc2)cc1` [A27, N-(2-((6-amino-5-(4-phenoxyphenyl)pyrimidin-4-yl)oxy)ethyl)acrylamide] stands above 1000 nM; under `C=CC(=O)N1CCC(CNc2ncnc(N)c2-c2ccc(Oc3ccc(C#N)cc3)cc2)CC1` [A86, 4-(4-(4-(((1-acryloylpiperidin-4-yl)methyl)amino)-6-aminopyrimidin-5-yl)phenoxy)benzonitrile], below 1000 nM; under `CN(C)C/C=C/C(=O)N1C2CCC1CC(CNc1ncnc(N)c1-c1ccc(Oc3ccccc3)cc1)C2` (stereo not drawn) [A71, (E)-1-(3-(((6-amino-5-(4-phenoxyphenyl)pyrimidin-4-yl)amino)methyl)-8-azabicyclo[3.2.1]octan-8-yl)-4-(dimethylamino)but-2-en-1-one], below 1000 nM. Then `Nc1ncnc(Oc2cccc(NC(=O)/C=C/CN3CCOCC3)c2)c1-c1ccc(Oc2ccccc2)cc1` [A265, (E)-N-(3-((6-amino-5-(4-phenoxyphenyl)pyrimidin-4-yl)oxy)phenyl)-4-morpholinobut-2-enamide], with below 100 nM; and `C#CC(=O)N1CC2(CC(Oc3ncnc(N)c3-c3cnn(Cc4ccccc4)c3)C2)C1` [A112, 1-(6-((6-amino-5-(1-benzyl-1H-pyrazol-4-yl)pyrimidin-4-yl)oxy)-2-azaspiro[3.3]heptan-2-yl)prop-2-yn-1-one], with below 100 nM; and `C/C=C/C(=O)NCc1cccc(-c2cnccc2Oc2ccc(Oc3ccccc3)cc2)c1` [A327, (E)-N-(3-(4-(4-phenoxyphenoxy)pyridin-3-yl)benzyl)but-2-enamide], with above 1000 nM. Take `C=CC(=O)N1CC[C@@H](CNc2ncnc(N)c2-c2cnn(Cc3ccccc3)c2)[C@H](O)C1` [A109, 1-((3S,4S)-4-(((6-amino-5-(1-benzyl-1H-pyrazol-4-yl)pyrimidin-4-yl)amino)methyl)-3-hydroxypiperidin-1-yl)prop-2-en-1-one]: the IC50 is below 100 nM. Then `C=CC(=O)Nc1cccc(Oc2ccnc(N)c2-c2ccc(Oc3ccccc3)cc2)c1` [A244, N-(3-((2-amino-3-(4-phenoxyphenyl)pyridin-4-yl)oxy)phenyl)acrylamide], with below 100 nM; and `C=CC(=O)N1CC[C@@H](COc2ncnc(N)c2-c2cnn(Cc3ccccc3)c2)C1` [A196, (R)-1-(3-(((6-amino-5-(1-benzyl-1H-pyrazol-4-yl)pyrimidin-4-yl)oxy)methyl)pyrrolidin-1-yl)prop-2-en-1-one], with below 1000 nM. For the compound `Nc1ncnc(OC2CC3(C2)CN(C(=O)/C=C/CN2CC(F)(F)C2)C3)c1-c1ccc(Oc2ccccc2)cc1` [A223, (E)-1-(6-((6-amino-5-(4-phenoxyphenyl)pyrimidin-4-yl)oxy)-2-azaspiro[3.3]heptan-2-yl)-4-(3,3-difluoroazetidin-1-yl)but-2-en-1-one], the IC50 is below 1000 nM. Under `C=CC(=O)NC1CC(CNc2ncnc(N)c2-c2ccc(Oc3ccccc3)cc2)C1` (stereo not drawn) [A182, N-(3-(((6-amino-5-(4-phenoxyphenyl)pyrimidin-4-yl)amino)methyl)cyclobutyl)acrylamide] stands below 100 nM. For the compound `C=CC(=O)N1CCC[C@@H](Nc2ncnc(N)c2-c2cnn(Cc3ccccc3)c2)C1` [A180, (R)-1-(3-((6-amino-5-(1-benzyl-1H-pyrazol-4-yl)pyrimidin-4-yl)amino)piperidin-1-yl)prop-2-en-1-one], the IC50 is below 1000 nM. Consider `C=CC(=O)Nc1cccc(Oc2ncnc(N)c2-c2cnn(Cc3ccc(F)cc3)c2)c1` [A187, N-(3-((6-amino-5-(1-(4-fluorobenzyl)-1H-pyrazol-4-yl)pyrimidin-4-yl)oxy)phenyl)acrylamide], for which the IC50 is below 100 nM. As to `C=CC(=O)N1CCC(CNc2ncnc(N)c2-c2ccc(Oc3ccc(F)cc3)cc2)CC1` [A80], the IC50 was below 1000 nM.

With `C=CC(=O)Nc1cccc(Oc2ncnc(N)c2-c2cnn(Cc3cccc(C)c3)c2)c1` [A190, N-(3-((6-amino-5-(1-(3-methylbenzyl)-1H-pyrazol-4-yl)pyrimidin-4-yl)oxy)phenyl)acrylamide], the IC50 is below 100 nM. Then `CCC(=O)Nc1ccc(Oc2ncnc(N)c2-c2ccc(Oc3ccccc3)cc2)cc1` [A308, N-(4-((6-amino-5-(4-phenoxyphenyl)pyrimidin-4-yl)oxy)phenyl)propionamide], with above 1000 nM. Then `C=CC(=O)N1CCC(CNc2ncncc2-c2ccc(Oc3ccccc3)cc2)CC1` [A334, 1-(4-(((5-(4-phenoxyphenyl)pyrimidin-4-yl)amino)methyl)piperidin-1-yl)prop-2-en-1-one], with below 100 nM; and `C=CC(=O)Nc1cccc(Oc2ncnc(N)c2-c2cnn(Cc3ccccc3C#N)c2)c1` [A194, N-(3-((6-amino-5-(1-(2-cyanobenzyl)-1H-pyrazol-4-yl)pyrimidin-4-yl)oxy)phenyl)acrylamide], with below 100 nM. Under `C=CC(=O)N1CCC(Nc2ncnc(N)c2-c2ccc(Oc3ccccc3)cc2)CC12CCC2` (stereo not drawn) [A125, 1-(8-((6-amino-5-(4-phenoxyphenyl)pyrimidin-4-yl)amino)-5-azaspiro[3.5]nonan-5-yl)prop-2-en-1-one] stands above 1000 nM. On to `C=CC(=O)N1CC2(CC(Oc3ncnc(N)c3-c3ccc(Oc4ccc(C#N)cc4)cc3)C2)C1` [A202, 4-(4-(4-((2-acryloyl-2-azaspiro[3.3]heptan-6-yl)oxy)-6-aminopyrimidin-5-yl)phenoxy)benzonitrile], for which the 50% inhibitory concentration (IC50) was below 100 nM. Then `C=CC(=O)N1CCC(CNc2ncnc(N)c2-c2ccc(Oc3ccc(C(F)(F)F)cc3)cc2)CC1` [A79, 1-(4-(((6-amino-5-(4-(4-(trifluoromethyl)phenoxy)phenyl)pyrimidin-4-yl)amino)methyl)piperidin-1-yl)prop-2-en-1-one], with below 1000 nM; and `Nc1cccc(-c2cnccc2Oc2ccc(Oc3ccccc3)cc2)c1` [A312, 3-(4-(4-phenoxyphenoxy)pyridin-3-yl)aniline], with above 1000 nM.

In the case of `C=CC(=O)Nc1cccc(Oc2ncnc(N)c2-c2ccc(OCc3ccccc3)nc2)c1` [A259, N-(3-((6-amino-5-(6-(benzyloxy)pyridin-3-yl)pyrimidin-4-yl)oxy)phenyl)acrylamide], the IC50 is below 100 nM. Then `Nc1ccc(-c2cnccc2Oc2ccc(Oc3ccccc3)cc2)cc1` [A314, 4-(4-(4-phenoxyphenoxy)pyridin-3-yl)aniline], with above 1000 nM; and `C=CS(=O)(=O)Nc1cccc(Oc2ncnc(N)c2-c2ccc(Oc3ccccc3)cc2)c1` [A58, N-(3-((6-amino-5-(4-phenoxyphenyl)pyrimidin-4-yl)oxy)phenyl)ethenesulfonamide], with below 100 nM; and `CN(C)C/C=C/C(=O)Nc1cccc(Oc2ccnc(N)c2-c2ccc(OCc3ccccc3)cc2)c1` [A152, (E)-N-(3-((2-amino-3-(4-(benzyloxy)phenyl)pyridin-4-yl)oxy)phenyl)-4-(dimethylamino)but-2-enamide], with below 1000 nM. Under `C=CC(=O)Nc1cccc(Oc2ncnc(N)c2-c2cnn(Cc3cc(F)cc(F)c3)c2)c1` [A183, N-(3-((6-amino-5-(1-(3,5-difluorobenzyl)-1H-pyrazol-4-yl)pyrimidin-4-yl)oxy)phenyl)acrylamide] stands below 100 nM; under `C=CC(=O)N1CC2(CC(Oc3ncnc(N)c3-c3ccc(Oc4cccnc4)cc3)C2)C1` [A221, 1-(6-((6-amino-5-(4-(pyridin-3-yloxy)phenyl)pyrimidin-4-yl)oxy)-2-azaspiro[3.3]heptan-2-yl)prop-2-en-1-one], above 1000 nM. `C=CC(=O)N1CCC(CNc2ncnc(N)c2-c2ccc3c(c2)OCCO3)CC1` [A84, 1-(4-(((6-amino-5-(2,3-dihydrobenzo[b][1,4]dioxin-6-yl)pyrimidin-4-yl)amino)methyl)piperidin-1-yl)prop-2-en-1-one]: the half-maximal inhibitory concentration (IC50) was above 1000 nM. Under `C=CC(=O)Nc1cncc(Oc2ncnc(N)c2-c2ccc(Oc3ccccc3)cc2)c1` [A60, N-(5-((6-amino-5-(4-phenoxyphenyl)pyrimidin-4-yl)oxy)pyridin-3-yl)acrylamide] stands below 100 nM.
